Experimental data reported in PubChem BioAssay (NCI).
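Cultured in 96-well plates, cells were exposed to test compound for 48 hours across five concentrations. GI50 is the concentration that inhibits growth by half. TGI marks complete inhibition of growth.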

Columns and labels:
Assay in all cases: DTP human tumour cell line panel, 48 h
[1] = system: OVCAR-8 ovarian
[2] = system: SF-539 CNS
[3] = system: NCI-H23 lung
[4] = system: MCF7 breast
[5] = system: A549 NSCLC
[6] = system: EKVX NSCLC
[7] = system: MDA-MB-231 breast
[8] = system: OVCAR-4 ovarian
[9] = system: MDA-MB-435
[10] = system: CCRF-CEM leukemia
[11] = system: A498 renal
[12] = system: OVCAR-5 ovarian
[13] = system: NCI-H522 lung
[14] = system: SF-268 CNS
[15] = system: HCC-2998 colon
[16] = system: 786-0 renal
[17] = system: LOX IMVI melanoma
[18] = system: HOP-92 NSCLC
[19] = system: CAKI-1 renal
[20] = system: MOLT-4 leukemia
[21] = system: NCI-H226 lung
[22] = system: SK-MEL-28 melanoma
[23] = system: PC-3 prostate
[24] = system: HCT-15 colon
[25] = system: SNB-19 CNS
[26] = system: M14 melanoma
[27] = system: SN12C renal
[28] = system: T-47D breast
[29] = system: HOP-62 NSCLC
[30] = system: UACC-257 melanoma
[31] = system: IGROV1 ovarian
[32] = system: SK-MEL-2 melanoma
[33] = system: SK-OV-3 ovarian
[34] = system: KM12 colon
[35] = system: COLO 205 colon
[36] = system: UACC-62 melanoma
[37] = system: MALME-3M melanoma
[38] = system: HT29 colon
[39] = system: SK-MEL-5 melanoma
[40] = system: SNB-75 CNS
[41] = system: RXF 393 renal
[42] = system: ACHN renal
[43] = system: UO-31 renal
[44] = system: HCT-116 colon
[45] = system: TK-10 renal
[46] = system: SW-620 colon
[47] = system: HS 578T breast
[48] = system: K-562 leukemia
[49] = system: NCI/ADR-RES ovarian
[50] = system: OVCAR-3 ovarian
[51] = system: NCI-H460 lung
[52] = system: U251 CNS
[53] = system: SF-295 CNS
[54] = system: RPMI-8226 leukemia
[55] = system: DU-145 prostate
[56] = system: HL-60(TB) leukemia

Molecule Cc1ccccc1N=C(c1ccccc1)C1C(=O)c2ccccc2C1=O has a GI50 [1] of 15 µM, a TGI [1] of over 100 µM and a GI50 [2] of 12.1 µM. For the same molecule, the TGI [2] was over 100 µM, the GI50 [3] was 15.8 µM and the TGI [3] was over 100 µM. It also gave a GI50 [4] of 1.48 µM, a TGI [4] of 19.3 µM and a GI50 [5] of 12.3 µM. It also gave a TGI [5] of over 100 µM, a GI50 [6] of 22.2 µM and a TGI [6] of 87.6 µM. It also gave a GI50 [7] of 21.3 µM, a TGI [7] of over 100 µM and a GI50 [8] of 20.4 µM. It also gave a TGI [8] of over 100 µM, a GI50 [9] of 3.44 µM and a TGI [9] of 14.8 µM. It also gave a GI50 [10] of 12.8 µM, a TGI [10] of 62.3 µM and a GI50 [11] of 24.4 µM. The TGI [11] was over 100 µM, the GI50 [12] was 24.6 µM and the TGI [12] was over 100 µM. The GI50 [13] was 1.99 µM, the TGI [13] was 17.7 µM and the GI50 [14] was 13.3 µM. The TGI [14] was 40.2 µM, the GI50 [15] was 19.2 µM and the TGI [15] was 54.2 µM. It also gave a GI50 [16] of 7.05 µM, a TGI [16] of 36 µM and a GI50 [17] of 21.7 µM. For the same molecule, the TGI [17] was 71.6 µM, the GI50 [18] was 14.4 µM and the TGI [18] was 53.8 µM. For the same molecule, the GI50 [19] was 21 µM, the TGI [19] was over 100 µM and the GI50 [20] was 9.98 µM. For the same molecule, the TGI [20] was 35.7 µM, the GI50 [21] was 19.4 µM and the TGI [21] was 57.5 µM. For the same molecule, the GI50 [22] was 24.9 µM, the TGI [22] was over 100 µM and the GI50 [23] was 18.9 µM. For the same molecule, the TGI [23] was 62 µM, the GI50 [24] was 11.3 µM and the TGI [24] was 73 µM. For the same molecule, the GI50 [25] was 20.8 µM, the TGI [25] was over 100 µM and the GI50 [26] was 2.67 µM. It also gave a TGI [26] of 13.2 µM, a GI50 [27] of 19.9 µM and a TGI [27] of over 100 µM. For the same molecule, the GI50 [28] was 4.12 µM, the TGI [28] was 36.5 µM and the GI50 [29] was 18.2 µM. It also gave a TGI [29] of 63.9 µM, a GI50 [30] of 18 µM and a TGI [30] of 96.6 µM. For the same molecule, the GI50 [31] was 10.7 µM, the TGI [31] was 39.4 µM and the GI50 [32] was 3.32 µM. The TGI [32] was 59.8 µM, the GI50 [33] was 3.68 µM and the TGI [33] was 77.2 µM. It also gave a GI50 [34] of 10.7 µM, a TGI [34] of 30.8 µM and a GI50 [35] of 13.8 µM. For the same molecule, the TGI [35] was 38.5 µM, the GI50 [36] was 11.6 µM and the TGI [36] was 30.7 µM. The GI50 [37] was 0.562 µM, the TGI [37] was 6.66 µM and the GI50 [38] was 13.7 µM. For the same molecule, the TGI [38] was over 100 µM, the GI50 [39] was 2.41 µM and the TGI [39] was 13.3 µM. It also gave a GI50 [40] of 23.4 µM, a TGI [40] of over 100 µM and a GI50 [41] of 7.37 µM. The TGI [41] was over 100 µM, the GI50 [42] was 19 µM and the TGI [42] was 62.4 µM. It also gave a GI50 [43] of 4.14 µM, a TGI [43] of 47.4 µM and a GI50 [44] of 2.34 µM. For the same molecule, the TGI [44] was 16.2 µM, the GI50 [45] was 8.43 µM and the TGI [45] was 38.5 µM. The GI50 [46] was 25.3 µM, the TGI [46] was over 100 µM and the GI50 [47] was 18.3 µM. The TGI [47] was 95.3 µM, the GI50 [48] was 25.6 µM and the TGI [48] was over 100 µM. The GI50 [49] was 8.73 µM, the TGI [49] was 47.3 µM and the GI50 [50] was 1.32 µM. The TGI [50] was 5.63 µM, the GI50 [51] was 6.91 µM and the TGI [51] was 38 µM. The GI50 [52] was 24.6 µM, the TGI [52] was over 100 µM and the GI50 [53] was 13.8 µM. The TGI [53] was 36.5 µM, the GI50 [54] was 4.27 µM and the TGI [54] was 27 µM. It also gave a GI50 [55] of 22.4 µM, a TGI [55] of 69.6 µM and a GI50 [56] of 9.49 µM. For the same molecule, the TGI [56] was 32.6 µM.
